Results: the supplement of paper PMC10307832

What was measured:
Test in all cases: relative viability (nuclei count vs DMSO), 5 days (fraction); higher = more cells survive
[1] = tested on: NCI-H596
Outline: (§1)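 Medians of duplicate plates are given as relative viability. That measure is the nuclei count in treated wells divided by the count in vehicle wells. Counts were taken on 4× images of lung cancer cell lines in 1536-well plates, 5 days after pin-tool dosing the day after seeding with one drug alone or a fixed anchor-drug dose plus five library-drug doses (not always all listed) in √10 steps.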

[2] = tested on: NCI-H1623
Outline: as §1

[3] = tested on: NCI-H1355
Outline: as §1

[4] = tested on: NCI-H322M
Outline: as §1

[5] = tested on: A549
Outline: as §1

[6] = tested on: NCI-H23
Outline: as §1

[7] = tested on: LCLC-97TM1
Outline: as §1

[8] = tested on: UMC-11
Outline: as §1

[9] = tested on: NCI-H1993
Outline: as §1

CCN(CC)CCCCNc1ncc2cc(-c3cc(OC)cc(OC)c3)c(NC(=O)NC(C)(C)C)nc2n1 + N=C(N)NC(=N)NCCc1ccccc1 [Phenformin] (partner 250 µM)
relative viability ([1]; first compound 0.01 µM): 0.66 | relative viability ([1]; first compound 0.03162 µM): 0.727 | relative viability ([1]; first compound 0.1 µM): 0.899 | relative viability ([1]; first compound 0.3162 µM): 0.832 | relative viability ([1]; first compound 1 µM): 0.621 | relative viability ([2]; first compound 0.01 µM): 0.602 | relative viability ([2]; first compound 0.03162 µM): 0.49 | relative viability ([2]; first compound 0.1 µM): 0.626 | relative viability ([2]; first compound 0.3162 µM): 0.608 | relative viability ([2]; first compound 1 µM): 0.577 | relative viability ([3]; first compound 0.01 µM): 0.446 | relative viability ([3]; first compound 0.03162 µM): 0.443 | relative viability ([3]; first compound 0.1 µM): 0.468 | relative viability ([3]; first compound 0.3162 µM): 0.501 | relative viability ([3]; first compound 1 µM): 0.413 | relative viability ([4]; first compound 0.01 µM): 0.77 | relative viability ([4]; first compound 0.03162 µM): 0.779 | relative viability ([4]; first compound 0.1 µM): 0.791 | relative viability ([4]; first compound 0.3162 µM): 0.784 | relative viability ([4]; first compound 1 µM): 0.668 | relative viability ([5]; first compound 0.01 µM): 0.198 | relative viability ([5]; first compound 0.03162 µM): 0.19 | relative viability ([5]; first compound 0.1 µM): 1.04 | relative viability ([5]; first compound 0.3162 µM): 0.247 | relative viability ([5]; first compound 1 µM): 0.12 | relative viability ([6]; first compound 0.01 µM): 0.804 | relative viability ([6]; first compound 0.03162 µM): 0.878 | relative viability ([6]; first compound 0.1 µM): 0.791 | relative viability ([6]; first compound 0.3162 µM): 0.879 | relative viability ([6]; first compound 1 µM): 0.781 | relative viability ([7]; first compound 0.01 µM): 0.465 | relative viability ([7]; first compound 0.03162 µM): 0.42 | relative viability ([7]; first compound 0.1 µM): 0.514 | relative viability ([7]; first compound 0.3162 µM): 0.428 | relative viability ([7]; first compound 1 µM): 0.506 | relative viability ([8]; first compound 0.01 µM): 0.346 | relative viability ([8]; first compound 0.03162 µM): 0.353 | relative viability ([8]; first compound 0.1 µM): 0.371 | relative viability ([8]; first compound 0.3162 µM): 0.343 | relative viability ([8]; first compound 1 µM): 0.362 | relative viability ([9]; first compound 0.01 µM): 0.501 | relative viability ([9]; first compound 0.03162 µM): 0.512 | relative viability ([9]; first compound 0.1 µM): 0.554 | relative viability ([9]; first compound 0.3162 µM): 0.492 | relative viability ([9]; first compound 1 µM): 0.514

O=c1cc(-c2cccc3c2Sc2ccccc2S3)oc(N2CCOCC2)c1 + N=C(N)NC(=N)NCCc1ccccc1 [Phenformin] (partner 250 µM)
relative viability ([1]; first compound 0.08 µM): 0.808 | relative viability ([1]; first compound 0.253 µM): 0.812 | relative viability ([1]; first compound 0.8 µM): 0.921 | relative viability ([1]; first compound 2.53 µM): 0.756 | relative viability ([1]; first compound 8 µM): 0.887 | relative viability ([2]; first compound 0.08 µM): 0.603 | relative viability ([2]; first compound 0.253 µM): 0.68 | relative viability ([2]; first compound 0.8 µM): 0.593 | relative viability ([2]; first compound 2.53 µM): 0.535 | relative viability ([2]; first compound 8 µM): 0.576 | relative viability ([3]; first compound 0.08 µM): 0.47 | relative viability ([3]; first compound 0.253 µM): 0.479 | relative viability ([3]; first compound 0.8 µM): 0.421 | relative viability ([3]; first compound 2.53 µM): 0.429 | relative viability ([3]; first compound 8 µM): 0.409 | relative viability ([4]; first compound 0.08 µM): 0.738 | relative viability ([4]; first compound 0.253 µM): 0.764 | relative viability ([4]; first compound 0.8 µM): 0.742 | relative viability ([4]; first compound 2.53 µM): 0.632 | relative viability ([4]; first compound 8 µM): 0.688 | relative viability ([5]; first compound 0.08 µM): 0.202 | relative viability ([5]; first compound 0.253 µM): 0.097 | relative viability ([5]; first compound 0.8 µM): 0.315 | relative viability ([5]; first compound 2.53 µM): 0.129 | relative viability ([5]; first compound 8 µM): 0.28 | relative viability ([6]; first compound 0.08 µM): 0.811 | relative viability ([6]; first compound 0.253 µM): 0.96 | relative viability ([6]; first compound 0.8 µM): 0.901 | relative viability ([6]; first compound 2.53 µM): 0.714 | relative viability ([6]; first compound 8 µM): 0.959 | relative viability ([7]; first compound 0.08 µM): 0.403 | relative viability ([7]; first compound 0.253 µM): 0.361 | relative viability ([7]; first compound 0.8 µM): 0.475 | relative viability ([7]; first compound 2.53 µM): 0.418 | relative viability ([7]; first compound 8 µM): 0.496 | relative viability ([8]; first compound 0.08 µM): 0.322 | relative viability ([8]; first compound 0.253 µM): 0.34 | relative viability ([8]; first compound 0.8 µM): 0.372 | relative viability ([8]; first compound 2.53 µM): 0.29 | relative viability ([8]; first compound 8 µM): 0.324 | relative viability ([9]; first compound 0.08 µM): 0.494 | relative viability ([9]; first compound 0.253 µM): 0.52 | relative viability ([9]; first compound 0.8 µM): 0.589 | relative viability ([9]; first compound 2.53 µM): 0.565 | relative viability ([9]; first compound 8 µM): 0.56
